According to patent publication US10139415B2, “Method for predicting responsiveness to compound inhibiting MAPK signal transduction pathway” (DAIICHI SANKYO COMPANY, LIMITED, priority 2013, dated 2018):
Like-named read-outs stand apart in the source and are kept apart here.

Key:
[1] = system: phosphorylation of MEK and ERK; test: MEK and ERK phosphorylation inhibition by western blotting; format: cell-based; settings: any of the cell lines (A375, HT29, DLD-1, HCT_116, SW48), 0.3-10 μM
Experimental: (§1) 48 hours after the drug treatment, the cells were collected and subjected to ethanol fixation and PI staining to measure a DNA content with a flow cytometer. In addition, in order to measure target molecule inhibitory activity in the drug-treated cells, the expression of ERK, phosphorylated ERK, MEK, phosphorylated MEK, and actin in the cells was evaluated by western blotting 24 hours after the drug treatment. In addition, the expression amount of a target molecule being phosphorylated was calculated compared to the expression amount of a target molecule to evaluate the influence of each inhibitor on a cell cycle at such a concentration that the expression of the phosphorylation of the target molecule was inhibited by 95% or more.

[2] = system: malignant melanoma having an active BRAF mutation; settings: patients with malignant melanoma having an active BRAF mutation, clinical trial; cited from earlier work
MEK = settings: cited from earlier work
SW48 cells [3] = test: cell growth-suppressive activity test; format: cell-based; settings: 2D and 3D culture, 72 hours, CellTiter-Glo
Experimental: (§2) A cell growth-suppressive activity test was performed in both of two-dimensional culture and three-dimensional culture. First, a plate for three-dimensional culture was produced. Specifically, poly(2-hydroxyethyl methacrylate) (hereinafter abbreviated as poly-HEMA, manufactured by Sigma) was added to 95% ethanol so that the concentration was 5 mg/mL, and dissolved therein at 37° C. overnight. The solution was used as a poly-HEMA solution. The solution was loaded into a 96-well plate (manufactured by Nunc) at 50 μL/well. The plate was dried at 37° C. to produce a plate for three-dimensional culture coated with poly-HEMA.
(§3) The two-dimensional culture (hereinafter sometimes referred to as 2D culture) and the three-dimensional culture (hereinafter sometimes referred to as 3D culture) were performed by seeding the cells in a 96-well plate at 1×10^3 cells/150 μL/well and 2×10^3 cells/75 μL/well, respectively, and performing drug treatment on the following day. The total volume was set to 200 μL in the two-dimensional culture, and the total volume was set to 100 μL in the three-dimensional culture. Cell growth was measured by measuring intracellular ATP amounts at the time of the drug treatment and 72 hours after the drug treatment. Specifically, after the removal of the culture medium at 100 μL/well, CellTiter-Glo (manufactured by Promega) was added at 50 μL/well in the two-dimensional culture, and CellTiter-Glo was added at 50 μL/well in the three-dimensional culture. After the addition, the plate was shaken with a shaker for 2 minutes and left to stand still at room temperature for 10 minutes. The total volume of each well was transferred to a white 96-well plate (manufactured by Nunc) and measured for its light emission intensity with a Wallac 1420 multilabel counter (manufactured by Perkin Elmer). From the resultant light emission amount, a growth ratio (Growth (%)) relative to a non-drug-treated sample after 72 hours was determined using the following mathematical formula 1 and mathematical formula 2.

HCT_116 cells [4] = test: cell growth-suppressive activity test; format: cell-based; settings: 2D and 3D culture, 72 hours, CellTiter-Glo
Experimental: as §2, §3

SK-MEL-1 cells = test: cell growth-suppressive activity test; format: cell-based; settings: 2D and 3D culture, 72 hours, CellTiter-Glo
Experimental: as §2, §3

colo-201 cells = test: cell growth-suppressive activity test; format: cell-based; settings: 2D and 3D culture, 72 hours, CellTiter-Glo
Experimental: as §2, §3

colo-205 cells = test: cell growth-suppressive activity test; format: cell-based; settings: 2D and 3D culture, 72 hours, CellTiter-Glo
Experimental: as §2, §3

24 kinds of cell lines = settings: GI50
Experimental: as §2
The two-dimensional culture (hereinafter sometimes referred to as 2D culture) and the three-dimensional culture (hereinafter sometimes referred to as 3D culture) were performed by seeding the cells in a 96-well plate at 1×10^3 cells/150 μL/well and 2×10^3 cells/75 μL/well, respectively, and performing drug treatment on the following day. […] Cell growth was measured by measuring intracellular ATP amounts at the time of the drug treatment and 72 hours after the drug treatment. […] The total volume of each well was transferred to a white 96-well plate (manufactured by Nunc) and measured for its light emission intensity with a Wallac 1420 multilabel counter (manufactured by Perkin Elmer). […]

SW48 cells [5] = test: cell cycle measurement / apoptosis induction (PI staining, flow cytometer); format: cell-based; settings: at the concentration that completely inhibited phosphorylation of ERK, 48 hours
Experimental: (§4) A cell cycle measurement was performed by propidium iodide (PI) staining as described below. First, cells were subjected to drug treatment after 24 hours from seeding thereof in a 6-well plate. After collecting the culture medium and trypsinized cells, they were subjected to centrifugation at 1,000 g for 5 minutes, and the supernatant was removed. 1 mL of PBS^− was added to suspend the cells. The suspension was transferred to a 1.5-mL tube and then subjected to centrifugation treatment at 13,000 g for 1 minute, and the supernatant was removed. 200 μL of PBS^− was added to the residue to suspend the cells, and 1 mL of ice-cold 70% ethanol was added. Then, the cells were vortexed and immobilized at 4° C.
(§5) The immobilized cells were subjected to centrifugation at 1,000 g for 5 minutes, and the supernatant was removed. 1 mL of a PBS^− solution containing 10 μg/mL of RNase was added to the residue to suspend the cells, which was left to stand still at 37° C. for 20 minutes. After that, centrifugation was performed for 5 minutes, and then the supernatant was removed. […] of a PBS^− solution containing PI (50 μg/mL, manufactured by Wako) was added to the residue to suspend the cells. The total volume thereof was passed through a nylon mesh (φ=42 μm) and used as a sample. An intracellular DNA content was detected with PMT4 of a flow cytometer (manufactured by Beckman Coulter) to measure a cell cycle.
(§6) 48 hours after the drug treatment, the cells were collected and subjected to ethanol fixation and PI staining to measure a DNA content with a flow cytometer. […] In addition, the expression amount of a target molecule being phosphorylated was calculated compared to the expression amount of a target molecule to evaluate the influence on a cell cycle at such a concentration of inhibiting the expression of the phosphorylation of the target molecule by 95% or more.
as §1

HCT_116 cells [6] = test: as above; format: cell-based; settings: at the concentration that completely inhibited phosphorylation of ERK (MEK and ERK for SB590885), 48 hours
Experimental: as §4, §5, §6, §1

A375 cells = test: as above; format: cell-based
Experimental: as §4, §5, §6, §1

HT29 cells = test: as above; format: cell-based; settings: at the concentration that completely inhibited phosphorylation of ERK, 48 hours
Experimental: as §4, §5, §6, §1

DLD-1 cells = test: as above; format: cell-based; settings: at the concentration that completely inhibited phosphorylation of ERK, 48 hours
Experimental: as §4, §5, §6, §1

SMILES: CNC(=O)c1cc(Oc2ccc(NC(=O)Nc3ccc(Cl)c(C(F)(F)F)c3)cc2)ccn1 [sorafenib]
- inhibitory effect on the phosphorylation of MEK and ERK [1]: did not provide complete inhibitory effects

SMILES: O=C(NOC[C@H](O)CO)c1ccc(F)c(F)c1Nc1ccc(I)cc1F [PD0325901]
- clinical response, total of a partial response and a complete response [2]: about 10%

SMILES: N#CC(=C(/N)Sc1ccccc1N)/C(C#N)=C(\N)Sc1ccccc1N [U0126]
- sensitivity in growth-suppressive activity test (from GI50) (SW48 cells [3]): high sensitivity
- sensitivity in growth-suppressive activity test (from GI50) (HCT_116 cells [4]): high sensitivity
- sensitivity in growth-suppressive activity test (from GI50) (SK-MEL-1 cells): high sensitivity
- sensitivity in growth-suppressive activity test (from GI50) (colo-201 cells): high sensitivity
- sensitivity in growth-suppressive activity test (from GI50) (colo-205 cells): high sensitivity
- tendency of drug sensitivity over the cell line panel compared with SMK-17 (24 kinds of cell lines): 23 out of the 24 kinds of cell lines exhibited a tendency of drug sensitivity similar to that in the case of SMK-17

SMILES: Cn1cnc2c(F)c(Nc3ccc(Br)cc3Cl)c(C(=O)NOCCO)cc21 [AZD6244]
- IC50 (MEK; non-ATP-competitive manner, read-out: MEK inhibition, IC50 value): ~0.012 µM

SMILES: O=C(NOCC1CC1)c1ccc(F)c(F)c1Nc1ccc(I)cc1Cl [PD184352]
- apoptosis induction / influence on cell cycle (sub-G1 population) (SW48 cells [5]): apoptosis was induced
- apoptosis induction / influence on cell cycle (sub-G1 population) (HCT_116 cells [6]): apoptosis was induced
- apoptosis induction / influence on cell cycle (sub-G1 population) (A375 cells; at the concentration that completely inhibited phosphorylation of ERK (MEK and ERK for SB590885), 48 hours): remarkable G1 arrest was induced but no apoptosis was induced
- apoptosis induction (A375 cells; concentration higher than that completely inhibiting phosphorylation of ERK): Apoptosis was induced
- apoptosis induction / influence on cell cycle (sub-G1 population) (HT29 cells): remarkable G1 arrest was induced but no apoptosis was induced
- apoptosis induction / influence on cell cycle (sub-G1 population) (DLD-1 cells): did not exhibit any particular influence
